Tests used:
[1] = tested on: H1299-7 xenografts; experiment: H1299-7 xenograft in BALB/c nude mice; assay type: in vivo; settings: single agent: 6 MBq LuTate single iv dose, or nedisertib 150 mg/kg oral for 6 days
Procedure: (§1) All animal experiments were performed with approval from the Peter MacCallum Cancer Centre Animal Experimentation Ethics Committee, and in accordance with the Australian code for the care and use of animals for scientific purposes (8th Edition, 2013). Four- to seven-week-old female BALB/c nude mice were sourced from Animal Resources Centre (Canning Vale, Western Australia). 3 × 10^6 AR42J or 5 × 10^6 H1299-7 cells were subcutaneously implanted onto the right flank of the mice in a 50% Matrigel (Corning):PBS mixture. Mice were weighed, and tumours measured twice weekly using electronic calipers. Tumour volume (mm^3) was calculated as length × width × height × π/6. Once tumours reached a volume of 50-300 mm^3, the animals were randomised into groups of 9-10 mice and injected intravenously with a single dose (5-10 MBq in 100-200 μL) LuTate or vehicle (saline). At 24 h post LuTate injection mice began once-daily oral dosing of DNA-PK inhibitor nedisertib (150 mg/kg) or vehicle (10% DMSO, 40% PEG300, 5% Tween-80, 45% saline) in a volume of 10 ml/kg for 6 consecutive days. Mice were monitored 2-3 times weekly for overall weight as an indicator of murine health and tumour volume measured. Mice were euthanised once the tumour volume exceeded 1200 mm^3.

[2] = tested on: H1299-7 MVP KO cells; experiment: Cell growth assay over 14 days; assay type: cell-based, human; settings: 5 MBq/mL LuTate
Procedure: (§2) Two gRNA (from the Brunello library, as determined in the MaGeCK count files) with the most significant enrichment or depletion for the genes to be validated, were pooled and nucleofected into H1299-7 Cas9 cells, using the Amaxa 4D nucleofector (Lonza), solution SF and program EW-127 (Lonza, optimised protocol for H1299 cells). Cells were nucleofected with 75 pmol of each gRNA in 20 μl (gRNA from Integrated DNA Technologies, sequences in supplementary Table 2). Efficiency of gene knockout was determined at 72 h post nucleofection through western blot or DNA sequencing. The resulting cell lines were H1299-7 Beta-Arrestin 2 knockout (KO), MVP KO, Artemis KO, and DNA-PK KO.
(§3) For LuTate treatment, aliquots of 4 × 10^6 cells were collected and resuspended in 500 μl DMEM + 1% FCS, and treated with either 0, 5, 10 or 20 MBq/mL LuTate for 4 h in suspension at 37°C and 5% CO2 with mixing every hour. Cells were resuspended in 4 mL full media and plated in 6 well plates at a concentration of 0.5 × 10^6 cells per well. For drug combination experiments, 24 h post LuTate treatment, cells were treated with either 0.5 μM or 1 μM of either AZD-7648 or nedisertib.
(§4) Cell growth was tracked over a 14-day period. Cells were counted and replated at 0.2 × 10^6 cells per well on Days 2, 6 and 9, with a final count on Day 14. Because of the exponential growth or significant lethality of the various cultures, not all cells were necessarily re-seeded at each subculture interval. However, the cell growth assay data is corrected for the fraction of cells re-plated so the data is expressed for all conditions as though all cells were re-plated at each interval (illustrated in Supplementary Figure S1). The total number of cells is thus the theoretical total number of cells over time if all cells at each subculture interval were re-seeded at identical density, calculated by: […]
(§5) Cell growth was normalised to the appropriate control for each experiment. For growth curves showing validation of the CRISPR result, results were graphed showing the alteration in cell population, as compared to control, over time (out to Day 14). For all other assays (combination experiments, and experiments using AR42J or SKNBE-2 cells), results are shown comparing cell population at the Day 14 timepoint. All assays were repeated as at least biological triplicates.

[3] = tested on: H1299-7 Artemis KO cells; experiment: Cell growth assay over 14 days; assay type: cell-based, human
Procedure: as §2, §3, §4, §5

[4] = tested on: H1299-7 Beta-Arrestin 2 KO cells; experiment: Cell growth assay over 14 days; assay type: cell-based, human
Procedure: as §2, §3, §4, §5

[5] = tested on: H1299-7 DNA-PK KO cells; experiment: Cell growth assay over 14 days; assay type: cell-based, human
Procedure: as §2, §3, §4, §5

[6] = tested on: SKNBE-2 cells; experiment: Cell growth assay, Day 14; assay type: cell-based, human
Procedure: as §3, §4
Cell growth was normalised to the appropriate control for each experiment. […]

[7] = tested on: H1299-7 MVP KO cells; experiment: LuTate retention assay; assay type: cell-based, human; settings: 5 MBq/mL LuTate for 4 h
Procedure: (§6) H1299-7, H1299-7 Cas9, MVP KO and Beta-Arrestin 2 KO cells were treated with either 0 or 5 MBq/mL LuTate using the same suspension protocol as for the growth experiments. After 4 h of treatment, cells were washed and triplicate aliquots collected for the 4 h timepoint, and the remaining cells plated in triplicate in 6 well plates for 24 h. For collection of samples, cells were spun down, washed twice, and resuspended in 500 μl PBS. All experiments were repeated as biological triplicates. Samples were stored at RT for 2-3 half-lives of LuTate (2-3 weeks), before being counted on the Captus 4000e gamma counter (Capintec). Percent LuTate retained by the cells was calculated as a percent of total activity added and averaged across the triplicate experiments.

[8] = tested on: H1299-7 Beta-Arrestin 2 KO cells; experiment: LuTate retention assay; assay type: cell-based, human; settings: 4 h treatment with 5 MBq/mL LuTate then 24 h in fresh medium, gamma counter, biological triplicates, p-value 0.01 vs control
Procedure: as §6

[9] = tested on: H1299-7 cells; experiment: LuTate retention assay; assay type: cell-based, human; settings: H1299-7 control cells, 4 h treatment with 5 MBq/mL LuTate then 24 h in fresh medium, gamma counter, biological triplicates
Procedure: as §6

[10] = tested on: H1299-7 cells; experiment: Cell growth assay over 14 days, LuTate alone or with DNA-PK inhibitor; assay type: cell-based, human; settings: parental H1299-7 cells, 20 MBq/mL LuTate
Text: Total Cells = Cell Number counted (1 well) × Number of Wells required
Number of Wells required going forward = Total Cells/0.2 × 10^6
Cell growth was normalised to the appropriate control for each experiment. […] All assays were repeated as at least biological triplicates.

[11] = tested on: AR42J tumours; experiment: AR42J xenograft in BALB/c nude mice; assay type: in vivo, mouse
Procedure: as §1

[12] = tested on: unselected tumours; settings: phase I clinical trial, cited from earlier work
Text: To this end, several clinical trials are evaluating the tolerability and efficacy of nedisertib in humans. […] Current clinical trials are focusing on the combination of nedisertib and radiotherapy in the setting of pancreatic cancers (NCT04172532) and glioblastoma and gliosarcoma (NCT04555577), as well as others. Additionally, there are two studies investigating the combination ...

SMILES	impact on tumour growth or survival compared to untreated controls [1]	increase in relative growth versus parental H1299-7 cells [2]	times more sensitive to LuTate than control cells ([3]; 5 MBq/mL LuTate, Day 14, p value 0.0021) [times]	cell population by Day 14 ([3]; 10 MBq/mL LuTate)	relative growth (% of control) at Day 14 ([3]; 10 MBq/mL LuTate for 4 h in suspension) [%]	relative growth (% of control) at Day 14 ([3]; 20 MBq/mL LuTate for 4 h) [%]	increase in relative growth versus parental H1299-7 cells ([4]; 5 MBq/mL LuTate)	increase in survival versus parental H1299-7 cells ([4]; 10 MBq/mL LuTate, p-value 0.015)	times more sensitive to LuTate than control cells ([5]; 5 MBq/mL LuTate, Day 14, p value 0.0017) [times]	cell population by Day 14 ([5]; 10 MBq/mL LuTate)	reduction of survival ([6]; 20 MBq/mL LuTate alone, Day 14) [%]	effect on cell survival ([6]; LuTate doses of less than 10 MBq/mL)	amount of LuTate retained versus control cells [7]	LuTate retained (percent of total activity added) [8] [%]	LuTate retained (percent of total activity added) [9] [%]	survival (expansion of parental cells) [10] [%]	tumour control post the end of treatment ([11]; AR42J tumours, 9 MBq LuTate single dose with or without 6 days nedisertib 150 mg/kg, 9-10 mice per group) [days]	median survival ([11]; AR42J xenograft mice, 9 MBq LuTate with or without nedisertib 150 mg/kg for 6 days, vehicle control 10 days, p-value 0.0001) [days]	efficacy in humans ([12]; unselected tumours)	tolerability in humans [12]
C[C@@H](O)[C@H](NC(=O)[C@@H]1CSSC[C@H](NC(=O)[C@@H](Cc2ccccc2)NC(=O)CN2CCN(CC(=O)[O-])CCN(CC(=O)[O-])CCN(CC(=O)[O-])CC2)C(=O)N[C@@H](Cc2ccc(O)cc2)C(=O)N[C@H](Cc2c[nH]c3ccccc23)C(=O)N[C@@H](CCCCN)C(=O)N[C@@H]([C@@H](C)O)C(=O)N1)C(=O)O.[177Lu+3] [LuTate, ^177Lutetium-DOTA-octreotate]	no impact	two-fold	20	almost completely eradicated	0.0038	0.000296	two-fold	four-fold	10	almost completely eradicated	50	little effect	no alteration	14.5	32	< 0.1	10	28		
COc1ccc([C@@H](O)c2cc(-c3ncnc4cc(N5CCOCC5)ccc34)c(F)cc2Cl)nn1 [nedisertib]	no impact																		modest efficacy	well tolerated
